Target: T1, TNK1 kinase (Homo sapiens, UniProt Q13470)
T1 sequence (Q13470 1-666): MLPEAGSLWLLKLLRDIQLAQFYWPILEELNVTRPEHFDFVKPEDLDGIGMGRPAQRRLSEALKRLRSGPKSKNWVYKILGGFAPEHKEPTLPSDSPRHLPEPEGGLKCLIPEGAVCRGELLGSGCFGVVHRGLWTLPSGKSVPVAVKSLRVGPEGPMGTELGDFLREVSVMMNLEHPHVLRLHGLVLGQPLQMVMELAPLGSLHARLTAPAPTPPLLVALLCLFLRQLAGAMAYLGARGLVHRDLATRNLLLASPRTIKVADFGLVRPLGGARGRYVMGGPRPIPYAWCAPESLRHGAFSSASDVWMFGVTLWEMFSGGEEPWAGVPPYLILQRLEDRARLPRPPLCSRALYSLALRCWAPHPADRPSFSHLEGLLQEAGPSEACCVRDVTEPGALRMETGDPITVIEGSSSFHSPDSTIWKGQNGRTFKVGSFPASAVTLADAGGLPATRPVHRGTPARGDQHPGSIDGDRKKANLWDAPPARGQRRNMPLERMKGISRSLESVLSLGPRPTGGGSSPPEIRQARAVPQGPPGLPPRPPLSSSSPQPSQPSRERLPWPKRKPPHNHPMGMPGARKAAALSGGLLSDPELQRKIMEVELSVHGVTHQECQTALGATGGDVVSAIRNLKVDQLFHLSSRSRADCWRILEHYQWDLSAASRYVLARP
Assay: TNK1 kinase activity inhibition assay (ADP-Glo)
Assay type: biochemical
Procedure: Measure compound inhibitory activity against TNK1 kinase using ADP-Glo Assay. 1× kinase reaction buffer was prepared (working concentrations: HEPES 50 mM, MgCl2 10 mM, Brij35 0.01%, EGTA 1 mM, DTT 2 mM). 2× kinase and 4× substrate buffers were prepared with the following working concentrations: For TNK1 kinase: kinase solution at 5 nM; substrate mixture containing ATP at 45 µM and MBP substrate at 0.1 mg/ mL. For ULK2 kinase: kinase solution at 0.15 nM; substrate mixture containing ATP at 6 µM and MBP substrate at 0.1 mg/mL. Compounds were serially diluted in DMSO and shaken on an orbital shaker for 20 minutes. 2× kinase solution was prepared using 1× kinase reaction buffer. 20 nL of compound solution was transferred to a 384-well plate. 2 µL of kinase solution was added to each well of the reaction plate. The plate was sealed with adhesive film, centrifuged at 1000 rpm for 60 seconds, and incubated at 25°C for 10 minutes. 2× ATP&MBP mixture was prepared using 1× kinase reaction buffer. 2 µL of 2× ATP&substrate mixture was added to the reaction plate. The plate was sealed with adhesive film, centrifuged at 1000 rpm for 60 seconds, and incubated at 25°C for 60 minutes. 4 µL of ADP-Glo reagent was transferred to the 384-well reaction plate, centrifuged at 1000 rpm for 1 minute, and incubated at 25°C for 40 minutes. 8 µL of Detection solution was transferred to the 384-well reaction plate, centrifuged at 1000 rpm for 1 minute, and incubated at 25°C for 40 minutes. Relative luminescence units (RLU) were measured using a BMG microplate reader, with signal intensity representing kinase activity level. The inhibition percentage was calculated as follows: % inhibition = 100% - [(Compound RLU - Positive Control RLU)/(Negative Control RLU - Positive Control RLU)] × 100%. The IC50 values (half-maximal inhibitory concentration) of compounds were determined by fitting the data to the following nonlinear regression equation using GraphPad Prism 7.0 software: Y = Bottom + (Top - Bottom)/(1 + 10^((LogIC50 - X) × Hill Slope)), where: X = log(compound concentration), Y = % inhibition. Table1: Inhibitory activity of compounds against ULK (IC50, nM)

Structure (SMILES): CNC(=O)c1ccccc1Nc1cc(Nc2cc3c(cc2OC)N2CCN(C4CCN(C)CC4)C[C@H]2CO3)ncc1C(F)(F)F [Compound D2S]
- IC50: < 0.01 µM

Reference: patent EP4653444A1, “FUSED TRICYCLIC COMPOUND AS KINASE INHIBITOR” (Hangzhou Innogate Pharma Co., Ltd., priority 2023, dated 2024)
